Experimental data taken from ChEMBL document CHEMBL5030541, “Non-alkylator anti-glioblastoma agents induced cell cycle G2/M arrest and apoptosis: Design, in silico physicochemical and SAR studies of 2-aminoquinoline-3-carboxamides” (Bioorg Med Chem Lett, 2021).
Calls of active or inactive are those of the source. The calls are words filed in the database; no cut-off is given here.

What was measured:
HCT-116 [1] = assay: Cytotoxicity against human HCT-116 cells assessed as inhibition of cell growth measured after 48 hrs by MTT assay; type: functional, cell-based; details: HCT-116, 48 h
MKN-45 [2] = assay: Cytotoxicity against human MKN-45 cells assessed as inhibition of cell growth measured after 48 hrs by MTT assay; type: functional, cell-based; details: MKN-45, 48 h
A549 [3] = assay: Cytotoxicity against human A549 cells assessed as inhibition of cell growth measured after 48 hrs by MTT assay; type: functional, cell-based; details: A549, 48 h
U-87 MG [4] = assay: Cytotoxicity against human U-87 MG cells assessed as inhibition of cell growth measured after 48 hrs by MTT assay; type: functional, cell-based, U-87MG ATCC
U-87 MG [5] = assay: Cytotoxicity against human U-87 MG cells assessed as inhibition of cell growth at 100 uM measured after 48 hrs by MTT assay; type: functional, cell-based; details: U-87MG ATCC
U-87 MG [6] = assay: Cytotoxicity against human U-87 MG cells assessed as inhibition of cell growth at 200 uM measured after 48 hrs by MTT assay; type: functional, cell-based; details: U-87MG ATCC
HCT-116 [7] = assay: Cytotoxicity against human HCT-116 cells assessed as inhibition of cell growth at 200 uM measured after 48 hrs by MTT assay; type: functional, cell-based
MKN-45 [8] = assay: Cytotoxicity against human MKN-45 cells assessed as inhibition of cell growth at 200 uM measured after 48 hrs by MTT assay; type: functional, cell-based
A549 [9] = assay: Cytotoxicity against human A549 cells assessed as inhibition of cell growth at 200 uM measured after 48 hrs by MTT assay; type: functional, cell-based
A 172 = assay: Cytotoxicity against human A 172 cells assessed as inhibition of cell growth measured after 48 hrs by MTT assay; type: functional, cell-based; details: A 172, 48 h
U-87 MG [10] = assay: Induction of apoptosis in human U-87 MG cells assessed as live cells at 44 uM measured after 48 hrs by annexin V-FITC/PI staining based flow cytometry analysis (Rvb= 91.6%); type: functional, U-87MG ATCC
CCD-841CoN = assay: Cytotoxicity against human CCD-841CoN cells assessed as inhibition of cell growth measured after 48 hrs by MTT assay; type: cell-based
U-87 MG [11] = assay: Induction of apoptosis in human U-87 MG cells assessed as early apoptotic cells at 44 uM measured after 48 hrs by annexin V-FITC/PI staining based flow cytometry analysis (Rvb= 6.21%); type: functional, U-87MG ATCC
NCM460 = assay: Cytotoxicity against human NCM460 cells assessed as inhibition of cell growth measured after 48 hrs by MTT assay; type: cell-based; details: NCM460, 48 h
U-118-MG [12] = assay: Effect on cell morphology in human U-118-MG cells assessed as appearance of round cells; type: functional, cell-based
U-87 MG [13] = assay: Effect on cell morphology in human U-87 MG cells assessed as appearance of round cells; type: functional, cell-based; details: U-87MG ATCC
U-87 MG [14] = assay: Effect on cell morphology in human U-87 MG cells assessed as lose of adherence; type: functional, cell-based; details: U-87MG ATCC
U-118-MG [15] = assay: Effect on cell morphology in human U-118-MG cells assessed as lose of adherence; type: functional, cell-based
U-251 = assay: Cytotoxicity against human U-251 cells assessed as inhibition of cell growth measured after 48 hrs by MTT assay; type: functional, cell-based; details: U-251, 48 h
U-87 MG [16] = assay: Induction of apoptosis in human U-87 MG cells assessed as dead cells at 44 uM measured after 48 hrs by Annexin V-FITC/PI staining based flow cytometry analysis (Rvb= 0.098%); type: functional, U-87MG ATCC
U-87 MG [17] = assay: Induction of apoptosis in human U-87 MG cells assessed as late apoptotic cells at 44 uM measured after 48 hrs by annexin V-FITC/PI staining based flow cytometry analysis (Rvb= 2.11%); type: functional, U-87MG ATCC
L02 = assay: Cytotoxicity against human L02 cells assessed as inhibition of cell growth measured after 48 hrs by MTT assay; type: cell-based; details: L02, 48 h
U-118-MG [18] = assay: Cytotoxicity against human U-118-MG cells assessed as inhibition of cell growth measured after 48 hrs by MTT assay; type: functional, cell-based
U-87 MG [19] = assay: Induction of cell cycle arrest in human U-87 MG cells assessed as accumulation of cells at G2/M phase at 0.5 times IC50 measured after 48 hrs by PI staining based flow cytometry analysis (Rvb= 5.39%); type: functional, U-87MG ATCC

SMILES	IC50 (HCT-116 [1]) [µM]	IC50 (MKN-45 [2]) [µM]	IC50 (A549 [3]) [µM]	IC50 (U-87 MG [4]) [µM]	other results
Nc1nc2cc3c(cc2cc1C(=O)NCCc1c[nH]c2ccccc12)OCO3	> 200	76.9	> 200	45.5	
c1cc2cc3c(cc2nc1C1CC1)OCO3				> 200	Activity (U-87 MG [5]): inactive
Nc1nc2cc3c(cc2cc1C(=O)NCc1cccnc1)OCO3	163	> 200	> 200	109	Activity (U-87 MG [6]): inactive; Activity (HCT-116 [7]): inactive; Activity (MKN-45 [8]): inactive; Activity (A549 [9]): inactive
Nc1nc2ncccc2cc1C(=O)NCc1cccnc1	> 200	> 200	> 200	303	
Nc1nc2cc3c(cc2cc1C(=O)NCCc1c[nH]c2ccccc12)OCCO3				44.4	
Cn1nnc2c(C(N)=O)ncn2c1=O [TEMOZOLOMIDE]				> 200	
Nc1nc2cc(Cl)ccc2cc1C(=O)NCc1cccnc1	> 200	> 200	> 200	125	
COc1cc2cc(C(=O)NCCc3c[nH]c4ccccc34)c(N)nc2cc1OC		72.3		43.6	IC50 (A 172): 23.7 µM; Activity (U-87 MG [10]): 5.65%; IC50 (CCD-841CoN): 135 µM; Activity (U-87 MG [11]): 50.9%; IC50 (NCM460): 222 µM; Activity (U-118-MG [12]): Active; Activity (U-87 MG [13]): Active; Activity (U-87 MG [14]): Active; Activity (U-118-MG [15]): Active; IC50 (U-251): 121 µM; Activity (U-87 MG [16]): 0.45%; Activity (U-87 MG [17]): 43%; Activity (U-87 MG [5]): Active; IC50 (L02): 118 µM; IC50 (U-118-MG [18]): 29.2 µM; Activity (U-87 MG [19]): 23.14%
Nc1nc2cc3c(cc2cc1C(=O)NCc1ccccc1)OCO3	> 200	> 200	> 200	75.6	
C#CCNC(=O)c1cc2cc3c(cc2nc1N)OCO3	> 200	> 200	92	> 200	
Nc1nc2cc3c(cc2cc1C(=O)NCC1CC1)OCO3	> 200	> 200	> 200	77.2	
Nc1nc2cc3c(cc2cc1C(=O)NCCN1C(=O)c2cccc4cccc(c24)C1=O)OCO3			73.4	> 200	
COc1cc2nc(N)c(C(=O)NCCc3c[nH]c4ccccc34)cc2c(Cl)c1OC		75.1		60.8	
